Experimental data reported in patent US20140275969A1, “FUNCTIONAL BROWN ADIPOSE TISSUE IMAGING TECHNIQUE” (GENERAL ELECTRIC COMPANY, priority 2013, published 2014).
“Also recorded” adds a separate entry of the source. Marks after values point to notes of the source that are not given here.

Assays:
[1] = human full blood at 37 degrees C.; cited from earlier work
[2] = tested on: brown adipose tissue (BAT-associated dorsal interscapular region); experiment: Hyperpolarized 13C MR imaging of brown adipose tissue activation after norepinephrine stimulation; type: in vivo, male Sprague-Dawley rats
Description: (§1) The following experimental results are from studies using male Sprague-Dawley rats (n=5, weight=336 g, SD=66 g) that were assessed for brown adipose tissue activation and assessment according to certain embodiments of the disclosure. The animals were kept at an ambient room temperature of 22° C. Ketamine/xylazine was used for anesthesia, with periodic intramuscular re-administration to maintain anesthesia (80-100 mg/kg ketamine, 8-10 mg/kg xylazine). Blood oxygen saturation and heart rate were monitored using a peripheral pulse oximeter placed on the tail. The body temperature of the animal was maintained throughout the imaging procedures using a heated water pad.
(§2) The animals were scanned in the supine position using a 3T GE MR750 scanner (GE Healthcare, Waukesha, Wis.). A micro-strip dual-tuned ^1H/^13C rat coil (Magvale, San Francisco, Calif.) was used. The rat was positioned so that the heart was in the centre of the coil, taking care to position the dorsal interscapular fat pad to remain within the sensitive region of the coil. A T2-weighted fast spin echo (FSE) (TE, 87 ms; TR, 5 s; matrix size, 192×160; FOV, 12×12 cm^2; slice thickness, 3 mm) sequence was used to obtain an anatomical reference for co-registration. A 2D FSE IDEAL sequence (TR, 5 s; matrix size, 192×160; FOV, 12×12 cm^2, slice thickness, 3 mm) was used to obtain water and fat images.
(§3) Hyperpolarized ^13C MR imaging scans were performed following intravenous tail vein infusions of 2.0 mL/80 mM pre-polarized [1-^13C] pyruvate. Pyruvate was injected over 10 seconds, with the MR imaging acquisition started simultaneously with the start of injection. Hyperpolarized scans were performed during baseline (n=5) and stimulated (n=3) conditions, 15 minutes after 2.5 mg/kg intraperitoneal norepinephrine (NE) injection, separated by approximately 1 hour to prepare the hyperpolarized sample. Pyruvate, bicarbonate, and lactate were imaged in an axial orientation using a multi-slice, single-shot, time-resolved 13C spiral imaging pulse sequence previously developed for large animal cardiac imaging (TR, 5 s; FOV, 48×48 cm^2; in-plane resolution, 6.8×6 8 mm^2; 6 slices, slice thickness/spacing, 10 mm/1 mm; pyruvate FA 10°, bicarbonate and lactate FA 60°; scan time, 1 min) (18, 24, 25). Each metabolic volume was acquired once during each TR, giving a total of 12 frames.
(§4) ROIs were drawn using the T2-weighted anatomical images, over the heart, kidneys, and in the dorsal interscapular region, a known depot of BAT in rodents. The ^13C image intensity in these ROIs were normalized to the temporal maximum pyruvate signal in the heart, and corrected for nominal FA by dividing by sin(FA). Statistical significance between baseline and norepinephrine stimulated conditions were assessed using a two-tailed, unpaired Student's t-test. Statistical significance was considered at the P<0.05 level.
To separate the effect from the effect of a change in perfusion, the dynamic data was fit on a voxel-by-voxel basis to obtain the apparent rate constants for pyruvate-to-bicarbonate conversion (kpyr,bic, s^−1) and pyruvate-to-lactate exchange (kpyr,lac, s^−1).

kidneys = experiment: Hyperpolarized 13C MR imaging after norepinephrine stimulation, kidney ROI; type: in vivo, male Sprague-Dawley rats
Description: as §1, §2, §3, §4

heart = experiment: Hyperpolarized 13C MR imaging after norepinephrine stimulation, heart ROI; type: in vivo, male Sprague-Dawley rats
Description: as §1, §2, §3, §4

[3] = BAT-associated dorsal interscapular region, voxel-by-voxel fit of dynamic data

Row | Structure (SMILES) | T1 relaxation [1] | 13C bicarbonate signal change following norepinephrine stimulation, relative to substrate signal in the heart ([2]; BAT-associated dorsal interscapular region, in words) | Difference in apparent pyruvate-to-bicarbonate conversion rate (kpyr,bic) versus baseline [2, 3] [fold] | Difference in apparent pyruvate-to-lactate conversion rate (kpyr,lac) versus baseline [2, 3] [fold] | Increase in hyperpolarized [1-13C] lactate (lactate-to-pyruvate ratio) versus baseline ([2]; BAT-associated interscapular region, P<0.001) [fold] | Increase in hyperpolarized 13C bicarbonate (bicarbonate-to-pyruvate ratio) versus baseline ([2]; BAT-associated interscapular region, P<0.01) [fold] | Hyperpolarized [1-13C] lactate signal change following norepinephrine infusion ([2]; dorsal interscapular region, in words) | Maximum bicarbonate to maximum cardiac pyruvate signal ratio ([2]; interscapular region, 15 minutes after 2.5 mg/kg intraperitoneal norepinephrine, n = 2, mean±SD) | Maximum lactate to maximum cardiac pyruvate signal ratio ([2]; interscapular region, 15 minutes after 2.5 mg/kg intraperitoneal norepinephrine, n = 3, mean±SD) | Maximum bicarbonate to maximum cardiac pyruvate signal ratio (kidneys; kidney, 15 minutes after 2.5 mg/kg intraperitoneal norepinephrine, n = 2, mean±SD) | Maximum lactate to maximum cardiac pyruvate signal ratio (kidneys; kidney, 15 minutes after 2.5 mg/kg intraperitoneal norepinephrine, n = 3, mean±SD) | 13C bicarbonate signal change following norepinephrine stimulation, relative to substrate signal in the heart (kidneys; kidney, in words) | Increase in hyperpolarized lactate signal versus baseline (kidneys; kidneys, P<0.05) [fold] | Hyperpolarized [1-13C] lactate signal change following norepinephrine infusion (kidneys; kidneys, in words) | Maximum bicarbonate to maximum cardiac pyruvate signal ratio (heart; 15 minutes after 2.5 mg/kg intraperitoneal norepinephrine, n = 2, mean±SD) | Maximum lactate to maximum cardiac pyruvate signal ratio (heart; 15 minutes after 2.5 mg/kg intraperitoneal norepinephrine, n = 3, mean±SD) | Increase in hyperpolarized lactate signal versus baseline (heart; P<0.001) [fold] | Hyperpolarized [1-13C] lactate signal change following norepinephrine infusion (heart; in words) | 13C bicarbonate signal change following norepinephrine stimulation, relative to substrate signal in the heart (heart; in words, listed as NE) | 13C bicarbonate signal change following norepinephrine stimulation, relative to substrate signal in the heart (heart; in words, listed as norepinephrine)
1 | CC(=O)[13C](=O)O [^13C1-pyruvate, [1-^13C] pyruvate] | about 42 s |  |  |  |  |  |  |  |  |  |  |  |  |  |  |  |  |  |  | 
2 | NC[C@H](O)c1ccc(O)c(O)c1 [Norepinephrine, norepinephrine] |  | increased | 3.4 | 4.0 | 4.0 | 4.3 | Increases | 0.0047 ± 0.0010*^ | 0.0543 ± 0.0051 | 0.0036 ± 0.0028^ns | 0.0625 ± 0.0130 | decreased | 1.9 | Increases | 0.0099 ± 0.0032^ns | 0.0816 ± 0.0191 | 4.0 | Increases | remained constant | remained constant; also recorded: not statistically significant
